Experiments:
[1] = tested on: P388; assay: Leukopenia % change in WBC at optimal dose on 3rd day.; type: functional, Mus musculus
[2] = tested on: P388; assay: Maximum % T/C against P-388 murine leukemia cells in mice.; type: functional, Mus musculus
[3] = tested on: P388; assay: Maximum % T/C with mitomycin C against P-388 murine leukemia cells in mice.; type: functional, Mus musculus
[4] = tested on: P388; assay: Minimum effective dose required for antitumor activity against P-388 murine leukemia cells in mice.; type: functional; settings: Mus musculus, read-out: MED
[5] = E1/2 value related to the saturated calomal electrode.; type: ADME; set-up: unit not given here
[6] = tested on: P388; assay: Optimal dose required for antitumor activity against P-388 murine leukemia cells in mice.; type: functional, Mus musculus
[7] = tested on: B16; assay: Average weight change after ip administration of a dose of 2 mg/kg/day in B-16 melanoma in mice; type: functional, Mus musculus; settings: route intraperitoneal
[8] = tested on: B16; assay: Average weight change after ip administration of a dose of 3 mg/kg/day in B-16 melanoma in mice; type: functional, Mus musculus; settings: route intraperitoneal
[9] = tested on: B16; assay: Average weight change after ip administration of a dose of 5 mg/kg/day inB-16 melanoma in mice; type: functional, Mus musculus; settings: route intraperitoneal
[10] = tested on: B16; assay: Tumor free survivors on 62nd day after ip administration of a dose of 2 mg/kg/day in B-16 melanoma in mice; out of 10; type: functional, Mus musculus; settings: route intraperitoneal
[11] = tested on: B16; assay: Tumor free survivors on 62nd day after ip administration of a dose of 3 mg/kg/day in B-16 melanoma in mice; type: functional, Mus musculus; settings: route intraperitoneal
[12] = tested on: B16; assay: Median survival time (% T/C) after ip administration of a dose of 2 mg/kg/day in B-16 melanoma in mice; type: functional, Mus musculus; settings: route intraperitoneal
[13] = tested on: B16; assay: Median survival time (% T/C) after ip administration of a dose of 3 mg/kg/day in B-16 melanoma in mice; type: functional, Mus musculus; settings: route intraperitoneal

Structure (SMILES)	Change in WBC [1] [%]	T/C [2] [%]	T/C [3] [%]	minimal effective dose [4] [mg/kg]	E1/2 [5]	Dose [6] [mg/kg]	Average weight change [7] [g]	Average weight change [8] [g]	Average weight change [9] [g]	Cures [10]	Cures [11]	T/C [12] [%]	T/C [13] [%]
COC12[C@@H]3N[C@@H]3CN1C1=C(C(=O)C(N3CCCC(O)C3)=C(C)C1=O)[C@@H]2COC(N)=O (stereo not given in full)	55	250	161	0.2	0.26	12.8	–	–	–	–	–	–	–
COC12[C@@H]3N[C@@H]3CN1C1=C(C(=O)C(N3CCSC3)=C(C)C1=O)[C@@H]2COC(N)=O (stereo not given in full)	69	222	183	0.2	0.39	25.6	–	–	–	–	–	–	–
COC12[C@@H]3N[C@@H]3CN1C1=C(C(=O)C(N3CC3C(N)=O)=C(C)C1=O)[C@@H]2COC(N)=O (stereo not given in full)	–	206	233	0.8	–	6.4	–	–	–	–	–	–	–
COC12[C@@H]3N[C@@H]3CN1C1=C(C(=O)C(N3CCOCC3)=C(C)C1=O)[C@@H]2COC(N)=O (stereo not given in full)	82	271	224	0.4	0.39	25.6	–	–	–	–	–	–	–
COC12[C@@H]3N[C@@H]3CN1C1=C(C(=O)C(N3CCNCC3)=C(C)C1=O)[C@@H]2COC(N)=O (stereo not given in full)	–	200	288	0.2	0.26	12.8	–	–	–	–	–	–	–
CCN(CC)C1=C(C)C(=O)C2=C(C1=O)[C@H](COC(N)=O)C1(OC)[C@@H]3N[C@@H]3CN21 (stereo not given in full)	–	222	211	1.6	0.26	25.6	–	–	–	–	–	–	–
COC12[C@@H]3N[C@@H]3CN1C1=C(C(=O)C(N3CC3C#N)=C(C)C1=O)[C@@H]2COC(N)=O (stereo not given in full)	2	339	228	0.2	0.3	12.8	0	0	-1.3	5	0	307	65
COC12[C@@H]3N[C@@H]3CN1C1=C(C(=O)C(N3CCCC3)=C(C)C1=O)[C@@H]2COC(N)=O (stereo not given in full)	64	>333	161	0.4	0.35	25.6	–	–	–	–	–	–	–
CCOC(=O)C1CN1C1=C(C)C(=O)C2=C(C1=O)[C@H](COC(N)=O)C1(OC)[C@@H]3N[C@@H]3CN21 (stereo not given in full)	–	133	233	–	–	12.8	–	–	–	–	–	–	–
COC12[C@@H]3N[C@@H]3CN1C1=C(C(=O)C(N3CC3c3ccccc3)=C(C)C1=O)[C@@H]2COC(N)=O (stereo not given in full)	38	311	200	0.2	–	3.2	–	–	–	–	–	–	–
COC12[C@@H]3N[C@@H]3CN1C1=C(C(=O)C(N3CC3)=C(C)C1=O)[C@@H]2COC(N)=O (stereo not given in full)	11	266	300	0.025	0.31	1.6	–	–	–	–	–	–	–
COC(=O)C1CN1C1=C(C)C(=O)C2=C(C1=O)[C@H](COC(N)=O)C1(OC)[C@@H]3N[C@@H]3CN21 (stereo not given in full)	–	147	288	1.6	–	6.4	–	–	–	–	–	–	–
COC12[C@@H]3N[C@@H]3CN1C1=C(C(=O)C(N3CCC(N4CCCCC4)CC3)=C(C)C1=O)[C@@H]2COC(N)=O (stereo not given in full)	29	194	200	1.6	0.28	12.8	–	–	–	–	–	–	–

Source: ChEMBL document CHEMBL1122452, “Mitomycin C analogues with secondary amines at position 7” (J Med Chem, 1983)
